Measured values from BindingDB's records for doi:10.1016/j.ejmech.2019.111863 (University of Malakand, 2020).

Target: Prostaglandin G/H synthase 2 (Homo sapiens) (UniProt P35354)
Assay: Inhibition of recombinant human COX2 expressed in baculovirus infected Sf21 cells using arachidonic acid as substrate preincubated for 5 mins followed by substrate addition and measured after 5 mins by UV-visible spectrophotometric method

Sequence of Prostaglandin G/H synthase 2 (Homo sapiens) (P35354 whole entry, looked up): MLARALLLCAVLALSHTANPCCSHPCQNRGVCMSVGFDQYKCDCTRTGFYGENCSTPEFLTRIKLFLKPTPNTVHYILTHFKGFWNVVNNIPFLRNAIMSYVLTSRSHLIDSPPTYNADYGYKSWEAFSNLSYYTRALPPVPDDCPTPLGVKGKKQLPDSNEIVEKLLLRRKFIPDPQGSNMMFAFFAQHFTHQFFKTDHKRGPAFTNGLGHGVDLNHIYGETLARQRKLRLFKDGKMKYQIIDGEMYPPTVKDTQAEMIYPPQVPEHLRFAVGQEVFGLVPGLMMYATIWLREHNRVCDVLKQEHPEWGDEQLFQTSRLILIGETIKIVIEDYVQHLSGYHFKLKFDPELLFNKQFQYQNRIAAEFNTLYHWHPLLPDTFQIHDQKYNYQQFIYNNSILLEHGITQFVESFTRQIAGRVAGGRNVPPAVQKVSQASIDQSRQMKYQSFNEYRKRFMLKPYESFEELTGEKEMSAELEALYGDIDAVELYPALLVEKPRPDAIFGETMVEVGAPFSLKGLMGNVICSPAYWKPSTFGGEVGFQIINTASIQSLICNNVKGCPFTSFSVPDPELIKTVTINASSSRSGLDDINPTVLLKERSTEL

| IC50 | Compound |
| --- | --- |
| 0.98 µM | Cc1ccc(C(=O)CC2CC(=O)N(c3ccc(S(N)(=O)=O)cc3)C2=O)cc1 (centres undefined) |
| 6.29 µM | NS(=O)(=O)c1ccc(N2C(=O)CC(CC(=O)c3ccc(Cl)cc3)C2=O)cc1 (centres undefined) |
| 2.1 µM | COc1ccc(C(=O)CC2CC(=O)N(c3ccc(S(N)(=O)=O)cc3)C2=O)cc1 (centres undefined) |
| 4.23 µM | NS(=O)(=O)c1ccc(N2C(=O)CC(CC(=O)c3ccccc3)C2=O)cc1 (centres undefined) |
| 8.94 µM | NS(=O)(=O)c1ccc(N2C(=O)CC(CC(=O)c3ccccn3)C2=O)cc1 (centres undefined) |
| 20.7 µM | NS(=O)(=O)c1ccc(N2C(=O)CC(C3CCCCCC3=O)C2=O)cc1 (centres undefined) |
| 51.4 µM | O=C1CCCC1C1CC(=O)N(c2ccccc2)C1=O (centres undefined) |
| 39.5 µM | O=C1CCCCCC1C1CC(=O)N(c2ccccc2)C1=O (centres undefined) |
| 56.6 µM | O=C1CCOCC1C1CC(=O)N(c2ccccc2)C1=O (centres undefined) |
| 21.9 µM | CC1CCC(=O)C(C2CC(=O)N(Cc3ccccc3)C2=O)C1 (centres undefined) |
| 56.5 µM | CC1CCC(=O)C(C2CC(=O)N(c3ccccc3)C2=O)C1 (centres undefined) |
| 113 µM | O=C1CCCCC1C1CC(=O)N(c2ccc(Br)cc2)C1=O (centres undefined) |
| 20 µM | O=C1CCCCC1C1CC(=O)N(Cc2ccccc2)C1=O (centres undefined) |
| 45.1 µM | O=C1CCCCC1C1CC(=O)N(c2ccccc2)C1=O (centres undefined) |
